Tests used:
[1] = refractive index (Na D-line) (dimensionless); xn = mol fraction of the nth substance listed; conditions: 298.15 K, 101 kPa, Liquid
[2] = xn = mol fraction of the nth substance listed; conditions: 101 kPa, Liquid
[3] = refractive index (Na D-line) (dimensionless); conditions: 101.33 kPa, Liquid
[4] = for surface tension liquid-gas: Drop weight; for mass density / speed of sound / viscosity: Liquid

CCO [ethanol] + CCOS(=O)(=O)[O-].CCn1cc[n+](C)c1
Conditions	refractive index
[1], x1 = 1	1.36023

[2], x1 = 1
Conditions	mass density [kg/m3]	speed of sound [m/s]	viscosity [mPa·s]
298.15 K	785.46	1146.3	1.082
313.15 K	772	1092.8	0.827
328.15 K	758.6	1043.2	0.641

CCOS(=O)(=O)[O-].CCn1cc[n+](C)c1 [1-ethyl-3-methylimidazolium ethyl sulfate]
Conditions	refractive index, [3]	surface tension liquid-gas, [4] [mN/m]
288.15 K	1.48197	47.91
293.15 K	1.48072	47.39
298.15 K	1.4794	46.96
303.15 K	1.47803	46.58
308.15 K	1.47669	46.23
313.15 K	1.47535	45.84
318.15 K	1.47397	–
323.15 K	1.47259	–
328.15 K	1.47124	–
333.15 K	1.46989	–
338.15 K	1.46851	–
343.15 K	1.46718	–

[4], 101.33 kPa
Conditions	mass density [kg/m3]	speed of sound [m/s]	viscosity [mPa·s]
288.15 K	1244.46	1703.9	–
293.15 K	1241	1691.4	–
298.15 K	1237.63	1679	97.58
303.15 K	1234.25	1666.6	76.67
308.15 K	1230.88	1654	61.71
313.15 K	1227.51	1641.6	50.01
318.15 K	1224.15	1629.2	41.37
323.15 K	1220.8	1616.8	34.46
328.15 K	1217.47	1604.5	29.18
333.15 K	1214.31	1591.3	24.96
338.15 K	1210.82	1578.9	21.45
343.15 K	1207.51	1566.4	18.72

O [water] + CCOS(=O)(=O)[O-].CCn1cc[n+](C)c1
Conditions	refractive index
[1], x1 = 1	1.33251

[2], x1 = 1
Conditions	mass density [kg/m3]	speed of sound [m/s]	viscosity [mPa·s]
298.15 K	–	–	0.89
313.15 K	–	–	0.653
328.15 K	985.7	1545.4	0.504

CCOS(=O)(=O)[O-].CCn1cc[n+](C)c1 [1-ethyl-3-methylimidazolium ethyl sulfate] + O
[1]
Conditions	refractive index
x2 = 0	1.4794
x2 = 0.0715	1.47827
x2 = 0.2089	1.476
x2 = 0.3227	1.47344
x2 = 0.5041	1.46726
x2 = 0.5975	1.46243
x2 = 0.7441	1.44916
x2 = 0.854	1.42825
x2 = 0.9506	1.38383

[2]
Conditions	mass density, 298.15 K [kg/m3]	mass density, 313.15 K [kg/m3]	mass density, 328.15 K [kg/m3]	speed of sound, 298.15 K [m/s]	speed of sound, 313.15 K [m/s]	speed of sound, 328.15 K [m/s]	viscosity, 298.15 K [mPa·s]	viscosity, 313.15 K [mPa·s]	viscosity, 328.15 K [mPa·s]
x2 = 0	1237.63	1227.51	1217.47	1679.1	1641.6	1604.5	97.58	50.01	29.18
x2 = 0.0715	1236.14	1225.97	1215.87	1687	1640.1	1617.1	82.01	43.36	25.8
x2 = 0.2089	1232.72	1222.53	1212.4	1696.7	1660.8	1622.1	57.84	32.09	19.82
x2 = 0.3227	1229	1218.87	1208.82	1707.2	1671	1631.7	42.89	24.76	15.8
x2 = 0.5041	1220	1209.82	1199.54	1729	1692.6	1652.9	24.74	15.11	10.02
x2 = 0.5975	1212.9	1202.43	1192.02	1741.6	1703.9	1665.9	17.52	10.98	7.45
x2 = 0.7441	1192.2	1181.55	1170.8	1773	1734.5	1695.3	10.58	6.715	4.622
x2 = 0.854	1159.2	1146.19	1135.3	1792.6	1749.2	1704.3	5.848	3.818	2.596
x2 = 0.9506	1084.4	1076.1	1066.9	1709.2	1693.1	1668.1	2.316	1.608	1.189

CCOS(=O)(=O)[O-].CCn1cc[n+](C)c1 [1-ethyl-3-methylimidazolium ethyl sulfate] + CCO
[1]
Conditions	refractive index
x2 = 0	1.4794
x2 = 0.0623	1.47717
x2 = 0.23	1.47031
x2 = 0.4113	1.46017
x2 = 0.5393	1.45018
x2 = 0.6788	1.43532
x2 = 0.7662	1.42247
x2 = 0.8303	1.41052
x2 = 0.9554	1.37687
x2 = 0.964	1.37373
x2 = 0.9863	1.36514

[2]
Conditions	mass density, 298.15 K [kg/m3]	mass density, 313.15 K [kg/m3]	mass density, 328.15 K [kg/m3]	speed of sound, 298.15 K [m/s]	speed of sound, 313.15 K [m/s]	speed of sound, 328.15 K [m/s]	viscosity, 298.15 K [mPa·s]	viscosity, 313.15 K [mPa·s]	viscosity, 328.15 K [mPa·s]
x2 = 0	1237.63	1227.51	1217.47	1679	1641.6	1604.5	97.58	50.01	29.18
x2 = 0.0623	1228.9	1218.87	1208.77	1669.8	1633.6	1594.8	79.12	42.18	25.36
x2 = 0.23	1201.26	1191.17	1181.01	1626.6	1590.1	1551	44.93	26.19	16.84
x2 = 0.4113	1161.68	1151.32	1140.94	1564	1527.7	1488.2	22.96	14.72	10.14
x2 = 0.5393	1123.63	1113	1102.3	1506.5	1459.1	1431.1	13.58	8.577	6.204
x2 = 0.6788	1066.7	1055.7	1044.7	1428.8	1381	1350.7	7.224	5.208	3.934
x2 = 0.7662	1017.9	1006.6	995.2	1367.2	1318.9	1286.7	4.598	3.413	2.642
x2 = 0.8303	973	961.3	949.6	1315.6	1266.2	1232.2	3.178	2.398	1.874
x2 = 0.9554	848.6	836.2	823.5	1195.9	1143.3	1102.6	1.573	1.2	0.941
x2 = 0.964	837.4	824.7	812	1186.2	1132.7	1091.4	1.427	1.095	0.862
x2 = 0.9863	806.1	793.4	780.3	1160.7	1106.2	1063.1	1.271	0.971	0.759

CCO [ethanol]
Conditions	refractive index
[3], 298.15 K	1.36023

[4], 101 kPa
Conditions	mass density [kg/m3]	speed of sound [m/s]	viscosity [mPa·s]
298.15 K	785.46	1146.3	1.082
313.15 K	772	1092.8	0.827
328.15 K	758.6	1043.2	0.641
